Reference: ChEMBL document CHEMBL1201862, “PubChem BioAssay data set” (2004)
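Each compound was tested at five concentrations against cells in 96-well plates for 48 hours. GI50 is the concentration that inhibits growth by half.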 Calls of active or inactive are those of the source. Cut-off read from the data, not from the text of the source: active = GI50 up to about 1.1 µM and inactive = higher.

Assays:
Experiment in all cases: NCI anticancer screen, dose series, 48 h
786-0 = tested on: 786-0
A549 = tested on: A549
ACHN = tested on: ACHN
CAKI-1 = tested on: CAKI-1
CCRF-CEM = tested on: CCRF-CEM
COLO 205 = tested on: COLO 205
DLD-1 = tested on: DLD-1
DMS-114 = tested on: DMS-114
DMS-273 = tested on: DMS-273
EKVX = tested on: EKVX
HCC 2998 = tested on: HCC 2998
HCT-116 = tested on: HCT-116
HCT-15 = tested on: HCT-15
HL-60 = tested on: HL-60
HOP-18 = tested on: HOP-18
HOP-62 = tested on: HOP-62
HOP-92 = tested on: HOP-92
HT-29 = tested on: HT-29
IGROV-1 = tested on: IGROV-1
K562 = tested on: K562
KM-20L2 = tested on: KM-20L2
KM12 = tested on: KM12
LOX IMVI = tested on: LOX IMVI
LXFL 529 = tested on: LXFL 529
M14 = tested on: M14
M19-MEL = tested on: M19-MEL
MOLT-4 = tested on: MOLT-4
Malme-3M = tested on: Malme-3M
NCI-H226 = tested on: NCI-H226
NCI-H23 = tested on: NCI-H23
NCI-H460 = tested on: NCI-H460
NCI-H522 = tested on: NCI-H522
OVCAR-3 = tested on: OVCAR-3
OVCAR-4 = tested on: OVCAR-4
OVCAR-8 = tested on: OVCAR-8
RPMI-8226 = tested on: RPMI-8226
RXF 393 = tested on: RXF 393
SF-268 = tested on: SF-268
SF-295 = tested on: SF-295
SF-539 = tested on: SF-539
SK-MEL-28 = tested on: SK-MEL-28
SK-MEL-2 = tested on: SK-MEL-2
SK-MEL-5 = tested on: SK-MEL-5
SK-OV-3 = tested on: SK-OV-3
SN12C = tested on: SN12C
SNB-19 = tested on: SNB-19
SNB-75 = tested on: SNB-75
SNB-78 = tested on: SNB-78
SR = tested on: SR
SW-620 = tested on: SW-620
TK-10 = tested on: TK-10
U-251 = tested on: U-251
UACC-257 = tested on: UACC-257
UACC-62 = tested on: UACC-62
UO-31 = tested on: UO-31
XF498 = tested on: XF498

CC(CCC[C@H](C)CO)[C@H]1[C@@H](O)C(O)C2[C@@H]3C[C@@H](O)C4(O)C[C@@H](O)CC[C@]4(C)C3CC[C@@]21C (stereo partly specified)
GI50 (786-0): > 100 µM (inactive) | GI50 (A549): > 100 µM (inactive) | GI50 (ACHN): > 100 µM (inactive) | GI50 (CAKI-1): > 100 µM (inactive) | GI50 (CCRF-CEM): 40.9 µM (inactive) | GI50 (COLO 205): > 100 µM (inactive) | GI50 (DLD-1): > 100 µM (inactive) | GI50 (DMS-114): 84.7 µM (inactive) | GI50 (DMS-273): > 100 µM (inactive) | GI50 (EKVX): > 100 µM (inactive) | GI50 (HCC 2998): > 100 µM (inactive) | GI50 (HCT-116): > 100 µM (inactive) | GI50 (HCT-15): > 100 µM | GI50 (HL-60): 44.9 µM (inactive) | GI50 (HOP-18): > 100 µM (inactive) | GI50 (HOP-62): > 100 µM (inactive) | GI50 (HOP-92): 87.3 µM (inactive) | GI50 (HT-29): > 100 µM (inactive) | GI50 (IGROV-1): > 100 µM (inactive) | GI50 (K562): 31.8 µM (inactive) | GI50 (KM-20L2): > 100 µM (inactive) | GI50 (KM12): > 100 µM (inactive) | GI50 (LOX IMVI): > 100 µM (inactive) | GI50 (LXFL 529): > 100 µM (inactive) | GI50 (M14): > 100 µM (inactive) | GI50 (M19-MEL): > 100 µM (inactive) | GI50 (MOLT-4): > 100 µM (inactive) | GI50 (Malme-3M): > 100 µM (inactive) | GI50 (NCI-H226): > 100 µM (inactive) | GI50 (NCI-H23): > 100 µM (inactive) | GI50 (NCI-H460): > 100 µM (inactive) | GI50 (NCI-H522): > 100 µM (inactive) | GI50 (OVCAR-3): > 100 µM (inactive) | GI50 (OVCAR-4): > 100 µM (inactive) | GI50 (OVCAR-8): > 100 µM (inactive) | GI50 (RPMI-8226): > 100 µM (inactive) | GI50 (RXF 393): > 100 µM (inactive) | GI50 (SF-268): > 100 µM (inactive) | GI50 (SF-295): > 100 µM (inactive) | GI50 (SF-539): > 100 µM (inactive) | GI50 (SK-MEL-28): > 100 µM (inactive) | GI50 (SK-MEL-2): > 100 µM (inactive) | GI50 (SK-MEL-5): > 100 µM (inactive) | GI50 (SK-OV-3): > 100 µM (inactive) | GI50 (SN12C): > 100 µM (inactive) | GI50 (SNB-19): > 100 µM (inactive) | GI50 (SNB-75): > 100 µM (inactive) | GI50 (SNB-78): > 100 µM (inactive) | GI50 (SR): 36 µM (inactive) | GI50 (SW-620): > 100 µM (inactive) | GI50 (TK-10): > 100 µM (inactive) | GI50 (U-251): > 100 µM (inactive) | GI50 (UACC-257): > 100 µM (inactive) | GI50 (UACC-62): > 100 µM (inactive) | GI50 (UO-31): > 100 µM (inactive) | GI50 (XF498): > 100 µM (inactive)
